Measurements: patent EP3153515A1, “COMPOUNDS FOR INHIBITING HEPATITIS C VIRUS, PHARMACEUTICAL COMPOSITIONS AND USES THEREOF” (priority 2014, dated 2015)
pEC50: −log10 of the molar value. Read-outs that look alike come from different tables or passages of the source.

How the values were obtained:
Type in all cases: cell-based
HCV NS5A replicon GT-1a = test: HCV NS5A replicon anti-viral activity (EC50), dual-reporter Renilla luciferase, GT-1a; conditions: for pEC50: Hepatitis C virus
Excerpt: (§1) The autonomous replication level of HCV in liver cells in vitro is very low, and the only animal that can be infected by HCV is chimpanzee, therefore there is no appropriate animal model currently available for preclinical pharmacodynamic study. Some researchers have transplanted human liver tissue infected with HCV in vitro into immune deficient mice to establish an in vivo mice model, but these mice are hard to raise and the model is unstable and short of normal immunologic reaction. Moreover, the model has significant difference with the pathogenic process of hepatitis C, therefore, it has not been used for animal model to assess the action of anti-HCV medicine yet. The progress of the development of anti-viral drugs for the treatment of HCV infection had been very slow because the pathogenic mechanism and life cycle of HCV were unclear before 1999 due to the lack of cell culture system for effective multiplication of HCV. But researchers managed to achieve a breakthrough in 1999 after numerous attempts. An effective cell culture model-replicon system in which HCV is capable of autonomous replication in transfected human hepatic carcinoma cell line Huh-7 had been established in that year on the basis of subgenomic HCV RNA built with genetic engineering.
(§2) The above-mentioned cell culture model-replicon system which has been widely accepted in the industry is used in this invention for ex vivo experiments and subsequent assessment of drugs based on the experiment results.
(§3) The therapeutic effect of the compounds of this invention on HCV infection can be preliminarily assessed through the following preclinical in vitro inhibitory action test and can be further confirmed in clinical trials. Other methods used in the invention are also quite familiar to professionals in this field with ordinary technical knowledge. Method for testing the anti-viral activity(EC50) in HCV NS5A replicon system: • The viral replication level in infected cells was determined by testing Renilla luciferase with the newly established dual-reporter gene replicon system. There was a good linear relation between the expression level of the reporter gene and the HCV RNA replication level and viral protein expression level. The anti-viral activity was determined for 3 replicates in 3 replicate cells at five(5) 1:2 diluted concentration gradients, with 1 to 2 positive controls. The EC50 of the compounds was calculated in the end.
(§4) The compounds of the invention, or their stereoisomers, tautomers, esterified or amidated prodrugs, or pharmaceutically acceptable salts and mixtures have been subjected to test to determined their therapeutic effects in the treatment of HCV infection. […] Moreover, the results of 6a-6ep(Ia), 6fa-6gq(Ib) and reference compounds Ref-1(BMS-790052), Ref-2(GS5885), Ref-3 in HCV-NS5 inhibition test reveal that the cyclopentanyl/hexamethyleneamino radical containing linear polypeptide compounds 6a-6ep, 6fa-6gq and reference compounds Ref-1, Ref-2, Ref-3 have good HCV inhibitory results. […] The replicons GT-1a, GT-lb, GT-2a, GT-3a, GT-4a, GT-5a and GT-6a used for the test are routine replicons commercially available in this field. Table 1: HCV NS5A replicon inhibitory activity test results of compounds (6a-6gq) of the invention

HCV NS5A replicon GT-lb = test: HCV NS5A replicon anti-viral activity (EC50), GT-1b; conditions: Hepatitis C virus, genotype 1a / genotype 6a, read-out: Inhibitory activity against various HCV-NS5A subtypes(EC50, GT-1a to GT-6a) GT-lb
Excerpt: as §1, §2, §3, §4

HCV NS5A replicon GT-2a = test: HCV NS5A replicon anti-viral activity (EC50), GT-2a; conditions: Hepatitis C virus, genotype 1a / genotype 2a / genotype 6a; GT-2a replicon; read-out: Inhibitory activity against various HCV-NS5A subtypes(EC50, GT-1a to GT-6a) GT-2a
Excerpt: as §1, §2, §3, §4

HCV NS5A replicon GT-3a = test: HCV NS5A replicon anti-viral activity (EC50), GT-3a; conditions: Hepatitis C virus, genotype 1a / genotype 3a / genotype 6a, read-out: Inhibitory activity against various HCV-NS5A subtypes(EC50, GT-1a to GT-6a) GT-3a
Excerpt: as §1, §2, §3, §4

HCV NS5A replicon GT-4a = test: HCV NS5A replicon anti-viral activity (EC50), GT-4a; conditions: Hepatitis C virus, genotype 1a / genotype 4a / genotype 6a, read-out: Inhibitory activity against various HCV-NS5A subtypes(EC50, GT-1a to GT-6a) GT-4a
Excerpt: as §1, §2, §3, §4

HCV NS5A replicon GT-5a = test: HCV NS5A replicon anti-viral activity (EC50), GT-5a; conditions: Hepatitis C virus, genotype 1a / genotype 5a / genotype 6a, read-out: Inhibitory activity against various HCV-NS5A subtypes(EC50, GT-1a to GT-6a) GT-5a
Excerpt: as §1, §2, §3, §4

HCV NS5A replicon GT-6a = test: HCV NS5A replicon anti-viral activity (EC50), GT-6a; conditions: Hepatitis C virus, genotype 1a / genotype 6a; GT-6a replicon; read-out: Inhibitory activity against various HCV-NS5A subtypes(EC50, GT-1a to GT-6a) GT-6a
Excerpt: as §1, §2, §3, §4

[1] = GT1A, GT-1a replicon, read-out: NS5A Inhibitory Activity (EC50 of GT-1a subtype inhibition)

SMILES | pEC50 (HCV NS5A replicon GT-1a; [1]) | also measured
COC(=O)N[C@H](C(=O)N1CCC[C@H]1c1ncc(-c2ccc(-c3cc4sc(-c5cnc([C@@H]6C=CCN6C(=O)[C@H](NC(=O)OC)c6ccccc6)[nH]5)cc4s3)cc2)[nH]1)C(C)C [6fg] | 9.00 to 12.00 | pEC50 (HCV NS5A replicon GT-1a; genotype 1a / genotype 6a, read-out: Inhibitory activity against various HCV-NS5A subtypes(EC50, GT-1a to GT-6a) GT-1a): 11.05; inhibitory activity compared with Ref-1(BMS-790052), Ref-2(GS5885), Ref-3 and Ref-4 (in words) (HCV NS5A replicon GT-1a; comparison drawn from Table 2): significantly superior; pEC50 (HCV NS5A replicon GT-lb): 10.89; pEC50 (HCV NS5A replicon GT-2a): 11.10; pEC50 (HCV NS5A replicon GT-3a): 10.62; pEC50 (HCV NS5A replicon GT-4a): 10.92; pEC50 (HCV NS5A replicon GT-5a): 10.54; pEC50 (HCV NS5A replicon GT-6a): 10.64
COC(=O)N[C@H](C(=O)N1CC=C[C@H]1c1ncc(-c2cccc3c(-c4ccc(-c5cnc([C@@H]6CCCN6C(=O)[C@@H](NC(=O)OC)C(C)C)[nH]5)cc4)cccc23)[nH]1)C(C)C [6eg] | 9.00 to 12.00 | 
COC(=O)N[C@H](C(=O)N1CC=C[C@H]1c1ncc(-c2ccc(-c3ccc(-c4cnc([C@@H]5CCCN5C(=O)[C@@H](NC(=O)N(C)C)C(C)C)[nH]4)cc3)cc2)[nH]1)C(C)C [6df] | 9.00 to 12.00 | 
COC(=O)NC(C(=O)N1CC=C[C@H]1c1ncc(-c2ccc(-c3ccc(-c4cnc([C@@H]5CCCN5C(=O)[C@@H](NC(=O)OC)C(C)C)[nH]4)cc3)cc2)[nH]1)c1ccccc1 (stereo partly shown) [6bx] | 9.00 to 12.00 | 
COC(=O)N[C@H](C(=O)N1CCC[C@H]1c1nc(-c2ccc(-c3ccc(-c4c[nH]c([C@@H]5C[C@@H](Oc6nc7ccccc7nc6-c6cccs6)CN5C(=O)[C@@H](NC(=O)OC)C(C)C)n4)cc3)cc2)c[nH]1)C(C)C [6w] | < 7.30 | 
COC(=O)N[C@H](C(=O)N1CC=C[C@H]1c1nc2ccc(-c3csc4c(-c5cnc([C@@H]6CCCN6C(=O)[C@H](NC(=O)OC)c6ccccc6)[nH]5)csc34)cc2[nH]1)C(C)C [6gn] | 9.00 to 12.00 | 
CC(C)[C@H](NC(=O)OC1CCCC1)C(=O)N1CC=C[C@H]1c1ncc(-c2ccc(-c3ccc(-c4c[nH]c([C@@H]5CCCN5C(=O)[C@@H](NC(=O)OC5CCCC5)C(C)C)n4)cc3)cc2)[nH]1 [6bg] | < 7.30 | 
CC(C)(C)OC(=O)N[C@H](C(=O)N1CC=C[C@H]1c1ncc(-c2ccc(-c3ccc(-c4c[nH]c([C@@H]5CCCN5C(=O)[C@@H](NC(=O)OC(C)(C)C)C(C)(C)C)n4)cc3)cc2)[nH]1)C(C)(C)C [6bb] | < 7.30 | 
COC(=O)N[C@H](C(=O)N1CC=C[C@H]1c1ncc(-c2ccc3c(c2)OC(c2ccccc2)n2c-3cc3cc(-c4cnc([C@@H]5CCCN5C(=O)[C@@H](NC(=O)OC)C(C)C)[nH]4)ccc32)[nH]1)C(C)C (stereo partly shown) [6ej] | 9.00 to 12.00 | 
COC(=O)N[C@H](C(=O)N1CCC[C@H]1c1nc(-c2ccc(-c3ccc(-c4cnc([C@@H]5C[C@@H](OC(=O)N6Cc7ccc8c(c7C6)OCO8)CN5C(=O)[C@@H](NC(=O)OC)C(C)C)[nH]4)cc3)cc2)c[nH]1)C(C)C [6a] | 9.00 to 12.00 | 
COC(=O)N[C@H](C(=O)N1CC=C[C@H]1c1nc(-c2ccc(-c3ccc(-c4cnc([C@@H]5C=CCN5C(=O)[C@@H](NC(=O)OC)C(C)C)[nH]4)cc3)cc2)c[nH]1)C(C)C [6bd] | 9.00 to 12.00 | 
CC(C)[C@H](NC(=O)OC1CCCC1)C(=O)N1CC=C[C@H]1c1nc(-c2ccc(-c3ccc(-c4cnc([C@@H]5C=CCN5C(=O)[C@@H](NC(=O)OC5CCCC5)C(C)C)[nH]4)cc3)cc2)c[nH]1 [6bf] | < 7.30 | 
COC(=O)N[C@H](C(=O)N1CCCC[C@H]1c1nc(-c2ccc(-c3ccc(-c4c[nH]c([C@@H]5CCCN5C(=O)[C@@H](NC(=O)OC)C(C)C)n4)cc3)cc2)c[nH]1)C(C)C [6ab] | 9.00 to 12.00 | 
COC(=O)N[C@H](C(=O)N1CCC[C@H]1c1nc2ccc(-c3csc4c(-c5ccc(-c6ccc7nc([C@@H]8C=CCN8C(=O)[C@H](NC(=O)OC)c8ccccc8)[nH]c7c6)cc5)csc34)cc2[nH]1)C(C)C [6gq] | 9.00 to 12.00 | 
COC(=O)N[C@H](C(=O)N1CN(C(=O)N2Cc3ccc4c(c3C2)OCO4)C[C@H]1c1ncc(-c2ccc(-c3cccc4c(-c5cnc([C@@H]6CCCN6C(=O)[C@@H](NC(=O)OC)C(C)C)[nH]5)cccc34)cc2)[nH]1)C(C)C [6ee] | 9.00 to 12.00 | 
COC(=O)N[C@H](C(=O)N1CC=C[C@H]1c1ncc(-c2ccc(-c3cc4sc(-c5cnc([C@@H]6CCCN6C(=O)[C@H](NC(=O)OC)c6ccccc6)[nH]5)cc4o3)cc2)[nH]1)C(C)C [6fq] | 9.00 to 12.00 | 
COC(=O)N[C@H](C(=O)N1CC=C[C@H]1c1nc(-c2ccc(-c3ccc(-c4c[nH]c([C@@H]5CCCN5C(=O)C5(NC(=O)OC)CCCCC5)n4)cc3)cc2)c[nH]1)C(C)C [6bj] | 9.00 to 12.00 | 
COC(=O)N[C@H](C(=O)N1CC=C[C@H]1c1nc2ccc(-c3cc4sc(-c5cnc([C@@H]6CCCN6C(=O)[C@@H](NC(=O)OC)C(C)C)[nH]5)cc4s3)cc2[nH]1)C(C)C [6gh] | 9.00 to 12.00 | 
COC(=O)N[C@H](C(=O)N1CC=C[C@H]1c1ncc(-c2ccc(-c3ccc(-c4cnc([C@@H]5CN(C(=O)OC(C)C)CN5C(=O)[C@@H](NC(=O)OC)C(C)C)[nH]4)cc3)cc2)[nH]1)C(C)C [6dc] | 9.00 to 12.00 | 
COC(=O)N[C@H](C(=O)N1CCC[C@H]1c1ncc(-c2cc3oc(-c4ccc(-c5cnc([C@@H]6C=CCN6C(=O)[C@H](NC(=O)OC)c6ccccc6)[nH]5)cc4)cc3s2)[nH]1)C(C)C [6fp] | 9.00 to 12.00 | 
COC(=O)N[C@H](C(=O)N1CCCC[C@H]1c1nc(-c2ccc(-c3ccc(-c4c[nH]c([C@@H]5C[C@H](OC(=O)N6Cc7cc8c(cc7C6)OCO8)CN5C(=O)[C@@H](NC(=O)OC)C(C)C)n4)cc3)cc2)c[nH]1)C(C)C [6ac] | 9.00 to 12.00 | 
CNC(=O)N[C@H](C(=O)N1CC=C[C@H]1c1ncc(-c2ccc(-c3ccc(-c4cnc([C@@H]5CCCN5C(=O)[C@@H](NC(=O)NC)C(C)C)[nH]4)cc3)cc2)[nH]1)C(C)C [6ch] | 9.00 to 12.00 | 
CN(C)C(=O)NC(C(=O)N1CC=C[C@H]1c1ncc(-c2ccc(-c3ccc(-c4cnc([C@@H]5CCCN5C(=O)C(NC(=O)N(C)C)c5ccccc5)[nH]4)cc3)cc2)[nH]1)c1ccccc1 (stereo partly shown) [6ce] | 9.00 to 12.00 | 
COC(=O)N[C@H](C(=O)N1CC=C[C@H]1c1nc2ccc(-c3csc4c(-c5cnc([C@@H]6CCCN6C(=O)[C@@H](NC(=O)OC)C(C)C)[nH]5)csc34)cc2[nH]1)C(C)C [6gm] | 9.00 to 12.00 | 
COC(=O)N[C@H](C(=O)N1CCC[C@H]1c1nc(-c2ccc(-c3ccc(-c4c[nH]c([C@@H]5C[C@H](Oc6nc7ccccc7nc6-c6cccs6)CN5C(=O)[C@@H](NC(=O)OC)C(C)C)n4)cc3)cc2)c[nH]1)C(C)C [6x] | 9.00 to 12.00 | 
COC(=O)N[C@H](C(=O)N1CCC[C@H]1c1ncc(-c2csc3c(-c4ccc5nc([C@@H]6C=CCN6C(=O)[C@H](NC(=O)OC)c6ccccc6)[nH]c5c4)csc23)[nH]1)C(C)C [6gj] | 9.00 to 12.00 | 
